Here are results for eight compounds from patent US20240287138A1, “CYCLIC PEPTIDES FOR INHIBITING TNF RECEPTOR 1 ACTIVITY” (Merck Sharp & Dohme LLC, priority 2023, published 2024).

Where two headings read alike, the source gives them in different places. Numbered stars: 1 amine (or outer) side, 2 acyl side, 3 side chain; on linkers, the order of the positions; unused ones are H or OH. Square brackets hold non-standard residues; d marks the D form. Peptide text beside a SMILES is read from it. * marks the point of attachment. Ala(2-carboxypyrimidin-5-yl) = N[C@@H](Cc1cnc(C(=O)O)nc1)C(=O)O; Trp(βS-Me,7-OMe) = COc1cccc2c([C@H](C)[C@H](N)C(=O)O)c[nH]c12; X44 = NC(=O)c1ccc([C@@H](O)[C@H](N[*:1])C(=O)[*:2])cc1; X28 = NC(=O)c1ccc([C@H](O)[C@H](N[*:1])C(=O)[*:2])cc1; Phe(4-SO2NH2) = N[C@@H](Cc1ccc(S(N)(=O)=O)cc1)C(=O)O; Phe(2-F,4-COOH) = N[C@@H](Cc1ccc(C(=O)O)cc1F)C(=O)O; Trp(7-CN) = N#Cc1cccc2c(C[C@H](N)C(=O)O)c[nH]c12; Trp(7-Cl) = N[C@@H](Cc1c[nH]c2c(Cl)cccc12)C(=O)O; Ala(pyrimidin-5-yl) = N[C@@H](Cc1cncnc1)C(=O)O; Phe(4-CONH2) = NC(=O)c1ccc(C[C@H](N)C(=O)O)cc1; Phe(4-COOH) = N[C@@H](Cc1ccc(C(=O)O)cc1)C(=O)O; X64 = O=C([C@H](Cc1n[nH]c2ncccc12)N[*:1])[*:2]; 4Pal(3S-Me) = C[C@@H](c1ccncc1)[C@H](N)C(=O)O; Trp(7-aza) = N[C@@H](Cc1c[nH]c2ncccc12)C(=O)O; X60 = NC(=O)[C@H](O)[C@H](N[*:1])C(=O)[*:2]; Pip(5R-OH) = O=C(O)[C@@H]1CC[C@@H](O)CN1; X1 = O=C([C@@H]1CC[C@H](N[*:1])C1)[*:2]; Gly(But-3-enyl) = C=CCC[C@H](N)C(=O)O; Pip(4-aza) = O=C(O)[C@@H]1CNCCN1; 4Pal = N[C@@H](Cc1ccncc1)C(=O)O; NMeE = CN[C@@H](CCC(=O)O)C(=O)O; dHyp = O=C(O)[C@H]1C[C@H](O)CN1; aThr = C[C@H](O)[C@H](N)C(=O)O; Ahp(2) = CCCCC[C@H](N)C(=O)O; αMeS = C[C@](N)(CO)C(=O)O; Carboxymethyl = O=C(O)C*; Nle = CCCC[C@H](N)C(=O)O; Sar = CNCC(=O)O

Assay [1] has as its target T1, human soluble TNFR1 (sTNFR1) (Homo sapiens, UniProt P19438).
T1 construct: made in house; host or cells: Sf21 (baculovirus)
T1 sequence (P19438 with tags, fused parts or gaps): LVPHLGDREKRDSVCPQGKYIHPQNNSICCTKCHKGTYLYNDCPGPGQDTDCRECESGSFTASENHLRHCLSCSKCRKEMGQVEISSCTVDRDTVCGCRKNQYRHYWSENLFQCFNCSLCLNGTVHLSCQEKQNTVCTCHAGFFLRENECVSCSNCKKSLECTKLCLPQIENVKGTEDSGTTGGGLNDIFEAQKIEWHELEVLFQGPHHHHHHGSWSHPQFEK
Nature of the assay: Human sTNFR1-peptide displacement assay (LanthaScreen Eu TR-FRET binding assay). In outline:
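Readout is the 665/615 nm TR-FRET ratio (Eu anti-His donor, streptavidin-Alexa647 acceptor), normalized to DMSO and saturating displacer, fit by Morrison-based five-parameter logistic for Kd^app. His-tagged sTNFR1 (1-211) prebound to 100 nM biotinylated peptide SEQ ID NO.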
Background: TR-FRET usually uses a lanthanide donor and a delayed reading to cut background.

Assay [2] concerns the target T2, TNFα-induced NF-κB signal transduction pathway (TNFR1 signaling) in THP-1 cells (Homo sapiens, UniProt P19438).
T2 sequence (P19438 30-455): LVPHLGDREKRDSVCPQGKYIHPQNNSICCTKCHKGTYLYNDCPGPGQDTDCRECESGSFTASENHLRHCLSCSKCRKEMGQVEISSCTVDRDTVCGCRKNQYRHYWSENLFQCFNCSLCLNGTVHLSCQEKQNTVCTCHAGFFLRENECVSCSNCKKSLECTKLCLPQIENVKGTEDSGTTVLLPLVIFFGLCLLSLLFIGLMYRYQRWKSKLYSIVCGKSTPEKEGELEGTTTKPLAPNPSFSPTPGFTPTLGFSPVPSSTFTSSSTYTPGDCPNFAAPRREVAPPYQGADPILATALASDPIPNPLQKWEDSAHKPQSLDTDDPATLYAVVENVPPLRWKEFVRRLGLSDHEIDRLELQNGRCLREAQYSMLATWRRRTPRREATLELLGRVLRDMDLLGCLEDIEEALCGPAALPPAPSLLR
The assay is described as follows: THP-1 Lucia NF-κB reporter cell assay, inhibition of TNFα-induced NF-κB signaling. In kind it is cell-based. Conditions: THP-1 NF-κB Lucia reporter cells, 10 ng/mL TNFα, 16-18 h, secreted luciferase, read-out: THP-1 IC50. In outline: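 Macrocyclic peptides were preincubated 1 h at 37 °C with THP-1 NF-κB-Lucia reporter cells (20,000 cells/well) in antibiotic-free RPMI 1640/10% FBS, then stimulated with 10 ng/mL human TNFα overnight (16-18 h). Secreted luciferase in supernatant was read by luminescence; IC50 from 4-parameter logistic fits.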

A word on the IC50: it is the concentration that inhibits the measured activity by half. In the case of `CCCC[C@@H]1NC(=O)[C@@H]2CC[C@@H](C2)NC(=O)[C@H]([C@@H](C)c2c[nH]c3c(OC)cccc23)NC(=O)CN(C)C(=O)[C@H](Cc2ccc(C(=O)O)cc2)NC(=O)[C@H](Cc2ccc(C(N)=O)cc2)NC(=O)[C@](C)(CO)NC(=O)[C@H](Cc2c[nH]c3c(C#N)cccc23)NC(=O)[C@H](Cc2ccc(C(=O)O)cc2)NC(=O)[C@H](CC(N)=O)NC(=O)[C@H]2C[C@H](OCC(=O)O)CN2C(=O)[C@H](Cc2c[nH]c3ncccc23)NC(=O)[C@@H]2CC[C@@H](O)CN2C(=O)[C@H](Cc2ccncc2)NC1=O` [SEQ ID NO. 77] (cyclo([4Pal][Pip(5R-OH)][Trp(7-aza)][dHyp](Carboxymethyl)N[Phe(4-COOH)][Trp(7-CN)][αMeS][Phe(4-CONH2)][Phe(4-COOH)][Sar][Trp(βS-Me,7-OMe)][X1][Nle])), in assay [1] (displacement of biotinylated peptide SEQ ID NO. 1 from sTNFR1, 20 point titration, 5-parameter fit based on Morrison equation (tight binding), read-out: TR-FRET Kd^app), the Kd came out at 60 pM. Moreover, in assay [2] (listed as 77), the 50% inhibitory concentration (IC50) stood at 600 pM.

In assay [1], `CCCC[C@@H]1NC(=O)[C@@H]2CC[C@@H](C2)NC(=O)[C@H]([C@@H](C)c2c[nH]c3c(OC)cccc23)NC(=O)CN(C)C(=O)[C@H](Cc2ccc(C(=O)O)cc2)NC(=O)[C@H](Cc2ccc(C(N)=O)cc2)NC(=O)[C@](C)(CO)NC(=O)[C@H](Cc2c[nH]c3c(C#N)cccc23)NC(=O)[C@H](Cc2ccncc2)NC(=O)[C@H]([C@@H](O)C(N)=O)NC(=O)[C@H]2C[C@H](O)CN2C(=O)[C@H](Cc2c[nH]c3ccccc23)NC(=O)[C@@H]2CC[C@@H](O)CN2C(=O)[C@H](Cc2ccncc2)NC1=O` [SEQ ID NO. 78] (cyclo([4Pal][Trp(7-CN)][αMeS][Phe(4-CONH2)][Phe(4-COOH)][Sar][Trp(βS-Me,7-OMe)][X1][Nle][4Pal][Pip(5R-OH)]W[dHyp][X60])) had a Kd of 50 pM. Also, the IC50 in assay [2] worked out at 700 pM.

For `CCCC[C@@H]1NC(=O)[C@@H]2CC[C@@H](C2)NC(=O)[C@H]([C@@H](C)c2c[nH]c3c(OC)cccc23)NC(=O)CN(C)C(=O)[C@H](Cc2ccc(C(=O)O)cc2)NC(=O)[C@H](Cc2ccc(C(N)=O)cc2)NC(=O)[C@](C)(CO)NC(=O)[C@H](Cc2c[nH]c3c(Cl)cccc23)NC(=O)[C@H](Cc2cnc(C(=O)O)nc2)NC(=O)[C@H](CC(N)=O)NC(=O)[C@H]2C[C@H](O)CN2C(=O)[C@H](Cc2c[nH]c3ccccc23)NC(=O)[C@@H]2CC[C@@H](O)CN2C(=O)[C@H](Cc2ccncc2)NC1=O` [SEQ ID NO. 88] (cyclo([4Pal][Pip(5R-OH)]W[dHyp]N[Ala(2-carboxypyrimidin-5-yl)][Trp(7-Cl)][αMeS][Phe(4-CONH2)][Phe(4-COOH)][Sar][Trp(βS-Me,7-OMe)][X1][Nle])), the Kd in assay [1] was determined as 200 pM. In assay [2], the half-maximal inhibitory concentration (IC50) came to 1900 pM.

`CCCC[C@@H]1NC(=O)[C@@H]2CC[C@@H](C2)NC(=O)[C@H]([C@@H](C)c2c[nH]c3c(OC)cccc23)NC(=O)CN(C)C(=O)[C@H](Cc2ccc(OCC(=O)O)cc2)NC(=O)[C@H](Cc2ccc(S(N)(=O)=O)cc2)NC(=O)[C@](C)(CO)NC(=O)[C@H](Cc2c[nH]c3c(C#N)cccc23)NC(=O)[C@H](Cc2ccc(OCC(=O)O)cc2)NC(=O)[C@H](CC(N)=O)NC(=O)[C@H]2C[C@H](OCC(=O)O)CN2C(=O)[C@H](Cc2n[nH]c3ncccc23)NC(=O)[C@@H]2CC[C@@H](O)CN2C(=O)[C@H](Cc2cncnc2)NC1=O` [SEQ ID NO. 89] (cyclo([X1][Nle][Ala(pyrimidin-5-yl)][Pip(5R-OH)][X64][dHyp](Carboxymethyl)NY(Carboxymethyl)[Trp(7-CN)][αMeS][Phe(4-SO2NH2)]Y(Carboxymethyl)[Sar][Trp(βS-Me,7-OMe)])): in assay [1], the Kd turned out to be 180 pM. Further, the IC50 in assay [2] is 1200 pM.

The compound `CCCC[C@@H]1NC(=O)[C@@H]2CC[C@@H](C2)NC(=O)[C@H]([C@@H](C)c2c[nH]c3c(OC)cccc23)NC(=O)CN(C)C(=O)[C@H]([C@H](O)c2ccc(C(N)=O)cc2)NC(=O)[C@H]([C@@H](O)c2ccc(C(N)=O)cc2)NC(=O)[C@](C)(CO)NC(=O)[C@H](Cc2c[nH]c3c(C#N)cccc23)NC(=O)[C@H](Cc2ccc(C(=O)O)cc2)NC(=O)[C@H](CC(N)=O)NC(=O)[C@H]2C[C@H](O)CN2C(=O)[C@H](Cc2c[nH]c3ncccc23)NC(=O)[C@@H]2CC[C@@H](O)CN2C(=O)[C@H](Cc2ccncc2)NC1=O` [SEQ ID NO. 90] (cyclo([4Pal][Pip(5R-OH)][Trp(7-aza)][dHyp]N[Phe(4-COOH)][Trp(7-CN)][αMeS][X28][X44][Sar][Trp(βS-Me,7-OMe)][X1][Nle])) returned a Kd in assay [1] of 120 pM. In addition, the half-inhibitory concentration (IC50) in assay [2] worked out at 1200 pM.

In assay [1], `CCCCC[C@@H]1NC(=O)[C@@H]2CC[C@@H](C2)NC(=O)[C@H]([C@@H](C)c2c[nH]c3c(OC)cccc23)NC(=O)CN(C)C(=O)[C@H](Cc2ccc(C(N)=O)cc2)NC(=O)[C@H](Cc2ccc(C(N)=O)cc2)NC(=O)[C@](C)(CO)NC(=O)[C@H](Cc2c[nH]c3c(C#N)cccc23)NC(=O)[C@H](Cc2ccc(C(=O)O)cc2)NC(=O)[C@H](CC(N)=O)NC(=O)[C@H]2C[C@H](O)CN2C(=O)[C@H](Cc2c[nH]c3ccccc23)NC(=O)[C@H]([C@H](C)O)NC(=O)[C@H]([C@@H](C)c2ccncc2)NC1=O` [SEQ ID NO. 91] (cyclo([Ahp(2)][4Pal(3S-Me)][aThr]W[dHyp]N[Phe(4-COOH)][Trp(7-CN)][αMeS][Phe(4-CONH2)][Phe(4-CONH2)][Sar][Trp(βS-Me,7-OMe)][X1])) yielded a Kd of 240 pM. Also, the IC50 in assay [2] came out at 900 pM.

In turn, `C=CCC[C@@H]1NC(=O)[C@@H]2CC[C@@H](C2)NC(=O)[C@H]([C@@H](C)c2c[nH]c3c(OC)cccc23)NC(=O)CN(C)C(=O)[C@H](Cc2ccc(C(N)=O)cc2)NC(=O)[C@H](Cc2ccc(C(N)=O)cc2)NC(=O)[C@](C)(CO)NC(=O)[C@H](Cc2c[nH]c3c(Cl)cccc23)NC(=O)[C@H](Cc2ccc(C(=O)O)cc2)NC(=O)[C@H](CC(N)=O)NC(=O)[C@H]2C[C@H](O)CN2C(=O)[C@H](Cc2c[nH]c3ccccc23)NC(=O)[C@@H]2CC[C@@H](O)CN2C(=O)[C@H](Cc2ccncc2)NC1=O` [SEQ ID NO. 103] (cyclo([4Pal][Pip(5R-OH)]W[dHyp]N[Phe(4-COOH)][Trp(7-Cl)][αMeS][Phe(4-CONH2)][Phe(4-CONH2)][Sar][Trp(βS-Me,7-OMe)][X1][Gly(But-3-enyl)])) showed a Kd in assay [1] of 50 pM. Further, in assay [2], the IC50 is 800 pM.

In assay [1], `CCCC[C@@H]1NC(=O)[C@@H]2CC[C@@H](C2)NC(=O)[C@H]([C@@H](C)c2c[nH]c3c(OC)cccc23)NC(=O)CN(C)C(=O)[C@H](Cc2ccc(C(=O)O)cc2F)NC(=O)[C@H](Cc2ccc(C(=O)O)cc2)NC(=O)[C@](C)(CO)NC(=O)[C@H](Cc2c[nH]c3c(Cl)cccc23)NC(=O)[C@H](Cc2ccncc2)NC(=O)[C@H](CC(N)=O)NC(=O)[C@H](CCC(=O)O)N(C)C(=O)[C@H](Cc2c[nH]c3ccccc23)NC(=O)[C@@H]2CNCCN2C(=O)[C@H](Cc2ccncc2)NC1=O` [SEQ ID NO. 107] (cyclo([4Pal][Trp(7-Cl)][αMeS][Phe(4-COOH)][Phe(2-F,4-COOH)][Sar][Trp(βS-Me,7-OMe)][X1][Nle][4Pal][Pip(4-aza)]W[NMeE]N)) displayed a Kd of 300 pM. Also, in assay [2], the half-inhibitory concentration (IC50) is 1000 pM.
